Measured values published in patent publication US20070060532A1, “Use of metformin and orlistat for the treatment or prevention of obesity” (Fournier Laboratories Ireland Limited, priority 2004, published 2007).

System: C57BL/6 EOPS male mice
Assay: Effect of metformin and orlistat co-administration on body weight in mice fed with high-fat diet
Format: in vivo
Details: p.o. mixed with the diet, orlistat 2 mg/kg, metformin 100 mg/kg, mean±s.e.m.
Procedure: This study was designed to evaluate the effects of a combination of metformin and orlistat on body weight.
Animals: C57BL/6 EOPS male mice, weighing approximately 20 g, were used in the study. C57BL/6 EOPS mice are normal mice which, when subjected to a high-fat diet, become obese and develop hyperglycaemia. They were put by 5 into individual cages in a temperature-, humidity- and light-controlled room (21-23° C.±2° C., 12 h-12 h light-dark cycle). […] After acclimatization, they were randomized into groups of 20, based on body weight.
The experimental groups were:
Group 1: mice fed with standard diet
Group 2: mice fed with high-fat diet, treated with orlistat 2 mg/kg p.o., mixed with the diet
Group 3: mice fed with high-fat diet, treated with metformin 100 mg/kg p.o., mixed with the diet
Group 4: mice fed with high-fat diet, treated with orlistat 2 mg/kg p.o. and metformin 100 mg/kg p.o., mixed with the diet.
Body weight was recorded at the beginning of the study, and after one and three weeks of treatment, respectively.
Statistics: All data are presented as mean±s.e.m. Results were subjected to covariance analysis corrected from baseline followed by Turkey-Kramer adjustment for multiple comparisons. A p<0.1 was considered significant (vs. standard diet).

Compound | Body weight gain (g) after 1 week | Body weight gain (g) after 3 weeks
CCCCCCCCCCC[C@@H](C[C@@H]1OC(=O)[C@H]1CCCCCC)OC(=O)[C@H](CC(C)C)NC=O (relative stereo) [Orlistat, [2S-[2α(R*),3β]]-N-formyl-L-leucine 1-[(3-hexyl-4-oxo-2-oxetanyl)methyl]dodecyl ester] | +3.2 ± 0.48 g | +5.5 ± 0.63 g
CN(C)C(=N)NC(=N)N [Metformin, 1,1-dimethylbiguanide] | +1.3 ± 0.14 g | +3.5 ± 0.25 g
